From patent US20250250265A1, “BENZOTHIAZOLE-PHENYLSULFONYL-PIPERIDINE ANALOGS AS ACTIVATORS OF NACYLPHOSPHATIDYLETHANOLAMINE HYDROLYZING PHOSPHOLIPASE D” (priority 2022, published 2025)
“Also recorded” adds a separate entry of the source. Like-named read-outs stand apart in the source and are kept apart here.

How the values were obtained:
[1] = tested on: HepG2 human hepatocytoma cells; assay: Cytotoxicity (MTT) in HepG2 cells; format: cell-based; conditions: for cytotoxicity in HepG2 cells: up to / at 30 μM; for % HepG2 viability (33 μM): Table 3
Description: Cytotoxicity was measured using MTT as previously described except that the studies used 96-well plates with 100 μL of 0.3 mg/mL MTT solution was added after 24 h of treatment and then replaced after 3 h with 0.1 M HCl in isopropanol. See Aggarwal et al., J. Biol. Chem. 295(21): 7289-7300 (2020). Viability was expressed as percent absorbance at 560 nm relative to vehicle controls.

[2] = biological target: T1, recombinant mouse NAPE-PLD (Mus musculus, UniProt Q8BH82); assay: In vitro fluorescence NAPE-PLD activity assay (HTS/CRC) with recombinant mouse NAPE-PLD and PED-A1; format: biochemical; conditions: for Max % bA (%): maximum induced activity compared to basal (100%) activity; for Emax (95% Cl): Table 4, maximal efficacy as fold increase in NAPE-PLD activity versus vehicle only; for bAC175: compound concentration to induce 175% basal activity
T1 construct: hexahistidine (His6) (C); made in house; host or cells: E. coli
T1 sequence (Q8BH82 1-396): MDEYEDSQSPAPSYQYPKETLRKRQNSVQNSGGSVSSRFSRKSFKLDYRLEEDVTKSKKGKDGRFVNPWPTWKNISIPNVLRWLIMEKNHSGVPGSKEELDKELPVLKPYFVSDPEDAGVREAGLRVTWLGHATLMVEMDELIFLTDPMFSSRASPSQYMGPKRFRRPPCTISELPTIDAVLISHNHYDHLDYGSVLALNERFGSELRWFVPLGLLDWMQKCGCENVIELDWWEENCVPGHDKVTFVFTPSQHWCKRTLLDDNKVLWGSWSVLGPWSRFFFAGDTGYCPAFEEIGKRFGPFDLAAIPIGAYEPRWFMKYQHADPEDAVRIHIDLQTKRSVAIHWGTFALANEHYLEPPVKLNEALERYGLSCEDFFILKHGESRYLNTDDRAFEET
Description: Using the fluorogenic NAPE substrate, PED-A1, and recombinant mouse NAPE-PLD (rNAPE-PLD), an in vitro high-throughput (HTS) assay was conducted to screen ˜40,000 compounds for their ability to modulate NAPE-PLD activity. The HTS assay enabled the detection of both NAPE-PLD activators and inhibitors. […] Initial structure-activity response studies with the top hits identified benzothiazole phenylsulfonyl-piperidine carboxamide analogs (BT-PSP analogs) as lead compounds for NAPE-PLD activators (Table 1). The lead BT-PSP analog identified, VU534, induces 50% of its activation effect on NAPE-PLD at 270 nM (AC50 270 nM), and induces a maximal effect of 195% of basal NAPE-PLD activity (Table 1).
In vitro fluorescence NAPE-PLD activity assays using recombinant NAPE-PLD and either PED-A1 or flame-NAPE as fluorogenic substrate were performed as previously described except with small modifications as noted below. See Aggarwal et al., J. Biol. Chem. 295(21): 7289-7300 (2020); Zarrow et al., J. Lipid Res. 63(1): 100156 (2022).
For the HTS assays, test compounds were incubated with recombinant enzyme for 1 h prior to adding PED-A1 (final 0.4 μM) mixed with N-palmitoyl-dioleoyl-PE (final 3.6 μM) to adjust for the high sensitivity of the Panoptic instrument (WaveFront Biosciences). Assays used black-wall, clear-bottom, non-sterile, and non-treated 384-well plates (Greiner Bio-One 781906). The assay was read in kinetic fluorescence mode on the Panoptic instrument for 4 min and the slope of the signal from 30-100 s was used for analysis. A total of 39,328 compounds from the Vanderbilt Discovery Collection were tested, each at 10 μM. The tested compounds were chosen to represent a structurally diverse selection from the full library. Each 384-well plate included 320 test compound wells and 64 control wells. Unlike previous pilot screening assays, bithionol (10 μM final) was used in place of lithocholic acid (100 μM final) as the inhibitor control. Before performing high-throughput screening, a checkerboard assay was performed to validate the assay parameters. This yielded a Z′ score of 0.676. Z′ scores were also calculated for each plate during screening, and plates with scores <0.5 were re-run. The average Z′ across all screening plates was 0.52, and the total hit rate was 3.6%. B-scores were calculated from the initial slopes across each plate using WaveGuide software (WaveFront Biosiences). Modulator hits were defined as compounds with absolute B-scores of 3 or higher. The number of compounds in various B-score ranges were as follows: […], 12 compounds; −10 to −5, 221 compounds; −5 to −3, 770 compounds; −3 to 3, 37924 compounds; 3 to 4, 314 compounds; 4 to 6, 70 compounds; 6 to 10, 15 compounds. Activator hits with B-scores of >3 were selected for the replication assay and a selection of analogs of the activators.
Concentration response curve (CRC) experiments used the same assay conditions as the HTS assay, except that graded concentrations of each test compound were used, with total amount of vehicle (DMSO) kept constant. CRC experiments with purified recombinant mouse NAPE-PLD were performed on two separate days, with values from each day normalized to vehicle only controls on same plate, and then all normalized values from both days averaged together. CRC experiments with human NAPE-PLD represent value from only a single day, due to limited amounts of this recombinant enzyme.

[3] = biological target: T2, NAPE-PLD activity of HepG2 cells (Homo sapiens, UniProt Q6IQ20); assay: Cell-based NAPE-PLD activity in HepG2 cells (flame-NAPE); conditions: for effect on NAPE-PLD activity in HepG2 cells: graded concentrations; for In-cell NAPE-PLD activity in HepG2 (10 μM) with PED-A1 or flame-NAPE as substrate: Table 3; for Emax / EC50: HepG2 cells; for Emax: % maximal induced activity (Table 2, Example 7); for EC50: flame-NAPE (Table 2, Example 7)
T2 construct: endogenous in cells; host or cells: HepG2
Description: In vitro models of the hepatic steatosis of non-alcoholic fatty liver disease (NAFLD) are well-established, with the primary method being incubation of primary human hepatocytes or hepatocyte cell lines such as HepG2, HuH7, HepaRG, with oleic acid and palmitic acid for 24 to 48 h, then measuring the resulting steatosis, lipid peroxidation, apoptosis, and inflammatory gene expression. Using flame-NAPE to measure NAPE-PLD activity in the human hepatoma HepG2 cell line, the experimental data confirmed that VU534 activated NAPE-PLD in human cells (AC50 940 nM; max % bA 155%). Bithionol (10 μM) reduced HepG2 flame-NAPE hydrolysis by >67%.
NAPE-PLD activity was measured in cells as previously described, except that FluoroBrite DMEM (Gibco A1896701) was used as media. See Zarrow et al., J. Lipid Res. 63(1): 100156 (2022). For RAW264.7 assays, PED-A1 (3.6 μM final) was used as the substrate with 10 μM orlistat added to inhibit PLA1 activity, while for HepG2 cells, flame-NAPE was used (with no orlistat added).

[4] = Table 1, concentration for 50% maximum activation from basal activity (no activator)
[5] = Table 2, maximal induced activity for recombinant NAPE-PLD compared to basal (100%), read-out: Emax (%)
[6] = Table 3, read-out: In vitro EC50
[7] = Table 3, read-out: In vitro Emax (100% activity is baseline activity of vehicle only)
[8] = Table 2, rNAPE-PLD activity assay, read-out: EC50

T2 sequence (Q6IQ20 whole entry): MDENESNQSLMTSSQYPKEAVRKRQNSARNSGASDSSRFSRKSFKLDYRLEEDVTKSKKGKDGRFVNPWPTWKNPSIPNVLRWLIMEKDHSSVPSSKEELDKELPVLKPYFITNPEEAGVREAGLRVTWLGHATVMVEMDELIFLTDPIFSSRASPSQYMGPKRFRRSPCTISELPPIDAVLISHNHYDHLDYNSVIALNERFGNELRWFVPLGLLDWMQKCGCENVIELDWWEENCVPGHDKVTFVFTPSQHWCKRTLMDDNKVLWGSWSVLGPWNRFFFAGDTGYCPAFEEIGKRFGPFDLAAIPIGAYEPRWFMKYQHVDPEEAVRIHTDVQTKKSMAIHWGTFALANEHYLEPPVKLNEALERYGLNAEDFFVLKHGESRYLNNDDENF

Row | SMILES | Max % bA (%) ([2]; Table 1) | Emax [2, 5] | Emax (95% Cl) [2] | In-cell NAPE-PLD activity in HepG2 (10 μM) with PED-A1 or flame-NAPE as substrate [3] | EC50 [2, 6] | Emax [2, 7] | EC50 [2, 8] | % HepG2 viability (33 μM) [1] | other results
1 | Cc1ccc(C)c2sc(NC(=O)C3CCN(S(=O)(=O)c4ccc(F)cc4)CC3)nc12 [VU533] | <120% | < 120% | 2.6 (2.6-2.8) fold | – | – | – | – | – | cytotoxicity in HepG2 cells [1]: no cytotoxicity; AC50 (nM) [2, 4]: Not active; EC50 (μM) ([2]; Table 2, rNAPE-PLD activity assay): Inactive; Emax, NAPE-PLD activity of HepG2 cells ([3]; FIG. 18B, flame-NAPE): 1.6 fold; effect on NAPE-PLD activity in HepG2 cells ([3]; flame-NAPE): increased NAPE-PLD activity
2 | Cc1cccc2sc(NC(=O)C3CCN(S(=O)(=O)c4cccnc4)CC3)nc12 [VU211] | – | – | 2.1 (2.0-2.2) fold | 148% | ~940 nM | ~176% | – | 72% | –
3 | Cc1cccc2sc(NC(=O)C3CCN(S(=O)(=O)c4cccnc4)CC3)nc12 [MRJ-058C] | – | 175% | – | – | – | – | 940 nM | – | –
4 | Cc1cccc2sc(NC(=O)C3CCN(S(=O)(=O)c4cnn(C)c4)CC3)nc12 [VU210] | – | – | 2.4 (2.3-2.6) fold | 124% | 1500 nM | 239% | – | 67% | –
5 | Cc1cc(C)c2sc(NC(=O)C3CCN(S(=O)(=O)c4ccc(F)cc4)CC3)nc2c1 [VU534, N-(5,7-Dimethylbenzo[d]thiazol-2-yl)-1-((4-fluorophenyl)sulfonyl)piperidine-4-carboxamide] | 195% | 205% | 2.1 (2.0-2.2) fold | 211% | 290 nM | 209% | 280 nM | 91% | cytotoxicity in HepG2 cells [1]: minimal cytotoxicity; bAC175 ([2]; Table 1): 750 nM; AC50 [2, 4]: 270 nM; Emax, NAPE-PLD activity of HepG2 cells ([3]; FIG. 18B, flame-NAPE): 1.6 fold; AC50 ([3]; HepG2, flame-NAPE (Example 7)): 940 nM; max % bA in HepG2 cells ([3]; HepG2, flame-NAPE (Example 7)): 155%; Emax [3]: 145%; EC50 [3]: 2400 nM; effect on NAPE-PLD activity in HepG2 cells ([3]; flame-NAPE): increased NAPE-PLD activity; also recorded: enhances NAPE-PLD activity
6 | O=C(Nc1nc2ccccc2s1)C1CCN(S(=O)(=O)c2cccnc2)CC1 [VU203] | – | – | 1.8 (1.7-2.0) fold | 122% | 3400 nM | 183% | – | 41% | –
7 | Cc1cccc2sc(NC(=O)C3CCN(S(=O)(=O)c4cnn(C)c4)CC3)nc12 [MRJ-058D] | – | 240% | – | – | – | – | 1500 nM | – | –
8 | Cc1cccc2sc(NC(=O)C3CCN(S(=O)(=O)c4ccc(F)c(Cl)c4)CC3)nc12 [VU209] | – | – | 1.9 (1.8-2.1) fold | 206% | 4700 nM | 179% | – | 73% | –
9 | Cn1cc(S(=O)(=O)N2CCC(C(=O)Nc3nc4ccccc4s3)CC2)cn1 [VU227] | – | – | 1.7 (1.6-1.9) fold | 125% | ~2900 nM | ~150% | – | 66% | –
10 | Cc1cccc2sc(NC(=O)C3CCN(S(=O)(=O)c4ccc(F)c(Cl)c4)CC3)nc12 [MRJ-058B] | – | 180% | – | – | – | – | 4700 nM | – | –

Now from value to compound, other results behind:

Row | Max % bA (%) ([2]; Table 1) | Emax [2, 5] | Emax (95% Cl) [2] | In-cell NAPE-PLD activity in HepG2 (10 μM) with PED-A1 or flame-NAPE as substrate [3] | EC50 [2, 6] | Emax [2, 7] | EC50 [2, 8] | SMILES | % HepG2 viability (33 μM) [1] | other results
11 | – | – | <1.2 fold | 130% | – | – | – | O=C(Nc1nc2ccccc2s1)C1CCN(S(=O)(=O)c2ccc(F)c(Cl)c2)CC1 [VU233] | 69% | cytotoxicity in HepG2 cells [1]: no cytotoxicity; EC50, NAPE-PLD activity of HepG2 cells ([3]; FIG. 18B, flame-NAPE): not calculable
12 | 190% | 210% | 2.0 (2.0-2.1) fold | – | 1500 nM | 213% | 1500 nM | Cc1ccc2sc(NC(=O)C3CCN(S(=O)(=O)c4ccc(F)cc4)CC3)nc2c1C [VU517] | – | bAC175 ([2]; Table 1): 1480 nM; AC50 [2, 4]: 767 nM; Emax [3]: 185%; EC50 [3]: 8900 nM; effect on NAPE-PLD activity in HepG2 cells ([3]; flame-NAPE): enhances NAPE-PLD activity
13 | 215% | 225% | 2.3 (2.2-2.4) fold | – | 890 nM | 227% | 890 nM | Cc1cc2nc(NC(=O)C3CCN(S(=O)(=O)c4ccc(F)cc4)CC3)sc2cc1C [VU536] | – | bAC175 ([2]; Table 1): 2400 nM; AC50 [2, 4]: 1540 nM
14 | – | 190% | 1.8 (1.7-1.9) fold | – | 240 nM | 189% | 240 nM | Cc1ccc2nc(NC(=O)C3CCN(S(=O)(=O)c4ccc(F)cc4)CC3)sc2c1 [VU486] | – | –
15 | 210% | 220% | 2.4 (2.3-2.5) fold | – | 190 nM | 215% | 190 nM | Cc1ccc(S(=O)(=O)N2CCC(C(=O)Nc3nc4c(C)cc(C)cc4s3)CC2)cc1 [VU575] | – | bAC175 ([2]; Table 1): 1690 nM; AC50 [2, 4]: 950 nM; Emax [3]: 145%; EC50 [3]: 3100 nM; effect on NAPE-PLD activity in HepG2 cells ([3]; flame-NAPE): enhances NAPE-PLD activity
